# Data published in US8084649B2, “Herbicides” (Syngenta Crop Protection, inc., priority 2007, dated 2011).
# System: Echinochloa crus-galli (ECHCG)
# Assay: Pre-emergence herbicidal activity, glasshouse pot test
# Type: in vivo
# Conditions: Echinochloa crus-galli, 480 h, rate 500 g/ha, evaluated after 20 days, read-out: Pre-emergence activity, ECHCG (100=total damage to plant; 0=no damage to plant)
# Procedure, shortened: (§1)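 Pre-emergence application: sprayed one day after seeding into pots of sterilised standard soil. After 20 days' growth in a greenhouse, percent damage was scored visually, 0 meaning unharmed and 100 total damage.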
row,SMILES,pest or weed control at 500 g/ha [%]
1,"CCc1cc(C)cc(CC)c1C1=C(O)CC2(CCOCC2)CC1=O [Compound T22, 9-(2,6-diethyl-4-methylphenyl)-3-oxaspiro[5.5]undecane-8,10-dione]",100
2,CCc1cc(C)cc(CC)c1C1=C(O)CC(CC[S+](C)[O-])CC1=O (centres unmarked) [Compound T15],100
3,"CCc1ccc(-c2ccc(Cl)cc2)cc1C1=C(O)CC2(CCOCC2)CC1=O [Compound T4, 9-(5-(4′-chlorophenyl)-2-ethylphenyl)-3-oxaspiro[5.5]undecane-8,10-dione]",100
4,CCc1cc(CC)c(C2=C(O)CC3(CCOCC3)CC2=O)c(CC)c1 [Compound T2],100

# System: Setaria faberi (SETFA)
# Assay: as above
# Type: in vivo
# Conditions: Setaria faberi, 480 h, rate 500 g/ha, evaluated after 20 days, read-out: Pre-emergence activity, SETFA (100=total damage to plant; 0=no damage to plant)
# Procedure, shortened: as §1
row,SMILES,pest or weed control at 500 g/ha [%]
1,"CCc1cc(C)cc(CC)c1C1=C(O)CC2(CCOCC2)CC1=O [Compound T22, 9-(2,6-diethyl-4-methylphenyl)-3-oxaspiro[5.5]undecane-8,10-dione]",100
2,CCc1cc(C)cc(CC)c1C1=C(O)CC(CC[S+](C)[O-])CC1=O (centres unmarked) [Compound T15],90
3,"CCc1ccc(-c2ccc(Cl)cc2)cc1C1=C(O)CC2(CCOCC2)CC1=O [Compound T4, 9-(5-(4′-chlorophenyl)-2-ethylphenyl)-3-oxaspiro[5.5]undecane-8,10-dione]",100
4,CCc1cc(CC)c(C2=C(O)CC3(CCOCC3)CC2=O)c(CC)c1 [Compound T2],90

# System: Avena fatua (AVEFA)
# Assay: as above
# Type: in vivo
# Conditions: Avena fatua, 480 h, rate 500 g/ha, evaluated after 20 days, read-out: Pre-emergence activity, AVEFA (100=total damage to plant; 0=no damage to plant)
# Procedure, shortened: as §1
row,SMILES,pest or weed control at 500 g/ha [%]
1,"CCc1cc(C)cc(CC)c1C1=C(O)CC2(CCOCC2)CC1=O [Compound T22, 9-(2,6-diethyl-4-methylphenyl)-3-oxaspiro[5.5]undecane-8,10-dione]",100
2,CCc1cc(C)cc(CC)c1C1=C(O)CC(CC[S+](C)[O-])CC1=O (centres unmarked) [Compound T15],80
3,"CCc1ccc(-c2ccc(Cl)cc2)cc1C1=C(O)CC2(CCOCC2)CC1=O [Compound T4, 9-(5-(4′-chlorophenyl)-2-ethylphenyl)-3-oxaspiro[5.5]undecane-8,10-dione]",70
4,CCc1cc(CC)c(C2=C(O)CC3(CCOCC3)CC2=O)c(CC)c1 [Compound T2],70

# System: Alopecurus myosuroides (ALOMY)
# Assay: as above
# Type: in vivo
# Conditions: Alopecurus myosuroides, 480 h, rate 500 g/ha, evaluated after 20 days, read-out: Pre-emergence activity, ALOMY (100=total damage to plant; 0=no damage to plant)
# Procedure, shortened: as §1
row,SMILES,pest or weed control at 500 g/ha [%]
1,"CCc1cc(C)cc(CC)c1C1=C(O)CC2(CCOCC2)CC1=O [Compound T22, 9-(2,6-diethyl-4-methylphenyl)-3-oxaspiro[5.5]undecane-8,10-dione]",100
2,CCc1cc(C)cc(CC)c1C1=C(O)CC(CC[S+](C)[O-])CC1=O (centres unmarked) [Compound T15],100
3,"CCc1ccc(-c2ccc(Cl)cc2)cc1C1=C(O)CC2(CCOCC2)CC1=O [Compound T4, 9-(5-(4′-chlorophenyl)-2-ethylphenyl)-3-oxaspiro[5.5]undecane-8,10-dione]",70
4,CCc1cc(CC)c(C2=C(O)CC3(CCOCC3)CC2=O)c(CC)c1 [Compound T2],80

# System: Lolium perenne (LOLPE)
# Assay: as above
# Type: in vivo
# Conditions: Lolium perenne, 480 h, rate 500 g/ha, evaluated after 20 days, read-out: Pre-emergence activity, LOLPE (100=total damage to plant; 0=no damage to plant)
# Procedure, shortened: as §1
row,SMILES,pest or weed control at 500 g/ha [%]
1,"CCc1cc(C)cc(CC)c1C1=C(O)CC2(CCOCC2)CC1=O [Compound T22, 9-(2,6-diethyl-4-methylphenyl)-3-oxaspiro[5.5]undecane-8,10-dione]",100
2,CCc1cc(C)cc(CC)c1C1=C(O)CC(CC[S+](C)[O-])CC1=O (centres unmarked) [Compound T15],100
3,"CCc1ccc(-c2ccc(Cl)cc2)cc1C1=C(O)CC2(CCOCC2)CC1=O [Compound T4, 9-(5-(4′-chlorophenyl)-2-ethylphenyl)-3-oxaspiro[5.5]undecane-8,10-dione]",70
4,CCc1cc(CC)c(C2=C(O)CC3(CCOCC3)CC2=O)c(CC)c1 [Compound T2],100

# System: Digitaria sanguinalis (DIGSA)
# Assay: as above
# Type: in vivo
# Conditions: Digitaria sanguinalis, 480 h, rate 500 g/ha, evaluated after 20 days, read-out: Pre-emergence activity, DIGSA (100=total damage to plant; 0=no damage to plant)
# Procedure, shortened: as §1
row,SMILES,pest or weed control at 500 g/ha [%]
1,"CCc1cc(C)cc(CC)c1C1=C(O)CC2(CCOCC2)CC1=O [Compound T22, 9-(2,6-diethyl-4-methylphenyl)-3-oxaspiro[5.5]undecane-8,10-dione]",100
2,CCc1cc(C)cc(CC)c1C1=C(O)CC(CC[S+](C)[O-])CC1=O (centres unmarked) [Compound T15],100
3,"CCc1ccc(-c2ccc(Cl)cc2)cc1C1=C(O)CC2(CCOCC2)CC1=O [Compound T4, 9-(5-(4′-chlorophenyl)-2-ethylphenyl)-3-oxaspiro[5.5]undecane-8,10-dione]",100
4,CCc1cc(CC)c(C2=C(O)CC3(CCOCC3)CC2=O)c(CC)c1 [Compound T2],100

# System: Echinochloa crus-galli (ECHCG)
# Assay: Post-emergence herbicidal activity, glasshouse pot test
# Type: in vivo
# Conditions: Echinochloa crus-galli, rate 125 g/ha, evaluated after 14 or 15 days, read-out: Post-emergence activity, ECHCG (100=total damage to plant; 0=no damage to plant)
# Procedure, shortened: (§2)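 Post-emergence: plants sown in sterilised standard soil, grown 10 days in glasshouse, then sprayed with aqueous solution of active ingredient formulated in acetone with Emulsogen EL, N-methylpyrrolidone, dipropylene glycol monomethyl ether and X-77. Evaluated 14 or 15 days later; scored 0 (no damage) to 100 (total damage).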
row,SMILES,pest or weed control at 125 g/ha [%]
1,"CCc1cc(C)cc(CC)c1C1=C(O)CC2(CCOCC2)CC1=O [Compound T22, 9-(2,6-diethyl-4-methylphenyl)-3-oxaspiro[5.5]undecane-8,10-dione]",100

# Same assay, conditions: Echinochloa crus-galli, rate 500 g/ha, evaluated after 14 or 15 days, read-out: Post-emergence activity, ECHCG (100=total damage to plant; 0=no damage to plant)
row,SMILES,pest or weed control at 500 g/ha [%]
1,CCc1cc(C)cc(CC)c1C1=C(O)CC(CC[S+](C)[O-])CC1=O (centres unmarked) [Compound T15],100
2,"CCc1ccc(-c2ccc(Cl)cc2)cc1C1=C(O)CC2(CCOCC2)CC1=O [Compound T4, 9-(5-(4′-chlorophenyl)-2-ethylphenyl)-3-oxaspiro[5.5]undecane-8,10-dione]",100
3,CCc1cc(CC)c(C2=C(O)CC3(CCOCC3)CC2=O)c(CC)c1 [Compound T2],100

# System: Setaria faberi (SETFA)
# Assay: as above
# Type: in vivo
# Conditions: Setaria faberi, rate 125 g/ha, evaluated after 14 or 15 days, read-out: Post-emergence activity, SETFA (100=total damage to plant; 0=no damage to plant)
# Procedure, shortened: as §2
row,SMILES,pest or weed control at 125 g/ha [%]
1,"CCc1cc(C)cc(CC)c1C1=C(O)CC2(CCOCC2)CC1=O [Compound T22, 9-(2,6-diethyl-4-methylphenyl)-3-oxaspiro[5.5]undecane-8,10-dione]",100

# Same assay, conditions: Setaria faberi, rate 500 g/ha, evaluated after 14 or 15 days, read-out: Post-emergence activity, SETFA (100=total damage to plant; 0=no damage to plant)
row,SMILES,pest or weed control at 500 g/ha [%]
1,CCc1cc(C)cc(CC)c1C1=C(O)CC(CC[S+](C)[O-])CC1=O (centres unmarked) [Compound T15],80
2,"CCc1ccc(-c2ccc(Cl)cc2)cc1C1=C(O)CC2(CCOCC2)CC1=O [Compound T4, 9-(5-(4′-chlorophenyl)-2-ethylphenyl)-3-oxaspiro[5.5]undecane-8,10-dione]",90
3,CCc1cc(CC)c(C2=C(O)CC3(CCOCC3)CC2=O)c(CC)c1 [Compound T2],80

# System: Avena fatua (AVEFA)
# Assay: as above
# Type: in vivo
# Conditions: Avena fatua, rate 125 g/ha, evaluated after 14 or 15 days, read-out: Post-emergence activity, AVEFA (100=total damage to plant; 0=no damage to plant)
# Procedure, shortened: as §2
row,SMILES,pest or weed control at 125 g/ha [%]
1,"CCc1cc(C)cc(CC)c1C1=C(O)CC2(CCOCC2)CC1=O [Compound T22, 9-(2,6-diethyl-4-methylphenyl)-3-oxaspiro[5.5]undecane-8,10-dione]",90

# Same assay, conditions: Avena fatua, rate 500 g/ha, evaluated after 14 or 15 days, read-out: Post-emergence activity, AVEFA (100=total damage to plant; 0=no damage to plant)
row,SMILES,pest or weed control at 500 g/ha [%]
1,CCc1cc(C)cc(CC)c1C1=C(O)CC(CC[S+](C)[O-])CC1=O (centres unmarked) [Compound T15],80
2,"CCc1ccc(-c2ccc(Cl)cc2)cc1C1=C(O)CC2(CCOCC2)CC1=O [Compound T4, 9-(5-(4′-chlorophenyl)-2-ethylphenyl)-3-oxaspiro[5.5]undecane-8,10-dione]",80
3,CCc1cc(CC)c(C2=C(O)CC3(CCOCC3)CC2=O)c(CC)c1 [Compound T2],80

# System: Alopecurus myosuroides (ALOMY)
# Assay: as above
# Type: in vivo
# Conditions: Alopecurus myosuroides, rate 125 g/ha, evaluated after 14 or 15 days, read-out: Post-emergence activity, ALOMY (100=total damage to plant; 0=no damage to plant)
# Procedure, shortened: as §2
row,SMILES,pest or weed control at 125 g/ha [%]
1,"CCc1cc(C)cc(CC)c1C1=C(O)CC2(CCOCC2)CC1=O [Compound T22, 9-(2,6-diethyl-4-methylphenyl)-3-oxaspiro[5.5]undecane-8,10-dione]",100

# Same assay, conditions: Alopecurus myosuroides, rate 500 g/ha, evaluated after 14 or 15 days, read-out: Post-emergence activity, ALOMY (100=total damage to plant; 0=no damage to plant)
row,SMILES,pest or weed control at 500 g/ha [%]
1,CCc1cc(C)cc(CC)c1C1=C(O)CC(CC[S+](C)[O-])CC1=O (centres unmarked) [Compound T15],90
2,"CCc1ccc(-c2ccc(Cl)cc2)cc1C1=C(O)CC2(CCOCC2)CC1=O [Compound T4, 9-(5-(4′-chlorophenyl)-2-ethylphenyl)-3-oxaspiro[5.5]undecane-8,10-dione]",90
3,CCc1cc(CC)c(C2=C(O)CC3(CCOCC3)CC2=O)c(CC)c1 [Compound T2],80

# System: Lolium perenne (LOLPE)
# Assay: as above
# Type: in vivo
# Conditions: Lolium perenne, rate 125 g/ha, evaluated after 14 or 15 days, read-out: Post-emergence activity, LOLPE (100=total damage to plant; 0=no damage to plant)
# Procedure, shortened: as §2
row,SMILES,pest or weed control at 125 g/ha [%]
1,"CCc1cc(C)cc(CC)c1C1=C(O)CC2(CCOCC2)CC1=O [Compound T22, 9-(2,6-diethyl-4-methylphenyl)-3-oxaspiro[5.5]undecane-8,10-dione]",90

# Same assay, conditions: Lolium perenne, rate 500 g/ha, evaluated after 14 or 15 days, read-out: Post-emergence activity, LOLPE (100=total damage to plant; 0=no damage to plant)
row,SMILES,pest or weed control at 500 g/ha [%]
1,CCc1cc(C)cc(CC)c1C1=C(O)CC(CC[S+](C)[O-])CC1=O (centres unmarked) [Compound T15],100
2,"CCc1ccc(-c2ccc(Cl)cc2)cc1C1=C(O)CC2(CCOCC2)CC1=O [Compound T4, 9-(5-(4′-chlorophenyl)-2-ethylphenyl)-3-oxaspiro[5.5]undecane-8,10-dione]",70
3,CCc1cc(CC)c(C2=C(O)CC3(CCOCC3)CC2=O)c(CC)c1 [Compound T2],80

# System: Digitaria sanguinalis (DIGSA)
# Assay: as above
# Type: in vivo
# Conditions: Digitaria sanguinalis, rate 125 g/ha, evaluated after 14 or 15 days, read-out: Post-emergence activity, DIGSA (100=total damage to plant; 0=no damage to plant)
# Procedure, shortened: as §2
row,SMILES,pest or weed control at 125 g/ha [%]
1,"CCc1cc(C)cc(CC)c1C1=C(O)CC2(CCOCC2)CC1=O [Compound T22, 9-(2,6-diethyl-4-methylphenyl)-3-oxaspiro[5.5]undecane-8,10-dione]",100

# Same assay, conditions: Digitaria sanguinalis, rate 500 g/ha, evaluated after 14 or 15 days, read-out: Post-emergence activity, DIGSA (100=total damage to plant; 0=no damage to plant)
row,SMILES,pest or weed control at 500 g/ha [%]
1,CCc1cc(C)cc(CC)c1C1=C(O)CC(CC[S+](C)[O-])CC1=O (centres unmarked) [Compound T15],100
2,"CCc1ccc(-c2ccc(Cl)cc2)cc1C1=C(O)CC2(CCOCC2)CC1=O [Compound T4, 9-(5-(4′-chlorophenyl)-2-ethylphenyl)-3-oxaspiro[5.5]undecane-8,10-dione]",100
3,CCc1cc(CC)c(C2=C(O)CC3(CCOCC3)CC2=O)c(CC)c1 [Compound T2],100

# System: not given
# Assay: not given
# Conditions: not given
row,melting point [°C],SMILES
1,108 to 114,Cc1ccc(C)c(C2=C(OC(=O)N(C)CCC#N)CC3(CCOCC3)CC2=O)c1 [Compound P57]
2,94.5 to 97.5,"CCc1ccc(-c2ccc(Cl)cc2)cc1C1=C(O)CC2(CCOCC2)CC1=O [Compound T4, 9-(5-(4′-chlorophenyl)-2-ethylphenyl)-3-oxaspiro[5.5]undecane-8,10-dione]"
